Data from PubChem BioAssay AID1996.
Converted amounts (≈) assume the structure as drawn.

Settings: buffer; pH 7.4; 200.0 µM

| Structure (SMILES) | solubility kinetic [µg/mL] |
| --- | --- |
| OCc1c[nH]c(=S)n1CCOc1cccc(C(F)(F)F)c1 | 5.5 (≈ 17.3 µM) |
| Fc1ccccc1N1CCN(Cc2cnc(Cl)s2)CC1 | 37.1 (≈ 119 µM) |
| O=C(CNC(=O)c1ccccc1F)OCc1nc2ccccc2s1 | 48.6 (≈ 141 µM) |
| CCCN(CC1CC1)CC(O)c1ccccc1.O=C(O)C(=O)O (stereo not given) | > 48.5 |
| CC(=O)Nc1ccc(NC(=S)NC(=O)c2ccc(-c3ccccc3)cc2)cc1 | 0.9 (≈ 2.31 µM) |
| CSc1ncccc1C(=O)NC1CCN(Cc2ccccc2)CC1 | 48.1 (≈ 141 µM) |
| O=C1CCc2cc(S(=O)(=O)Nc3ccccc3F)ccc2N1 | > 48.1 |
| Cc1ccc2cccc(SCC(=O)Nc3ccc(F)cc3)c2n1 | < 0.3 |
| CC(C)(C)c1ccc(NC(=S)NCCc2ccccn2)cc1 | 5.1 (≈ 16.3 µM) |
| COc1cc(OC)c(C(=O)Nc2ccc(C(=O)c3ccccc3)cc2)cc1OC | 3.4 (≈ 8.69 µM) |
| COc1ccc(CCNC(=O)CN2C(=O)NC3(CCCCC3C)C2=O)cc1 (stereo not given) | > 56 |
| CC1CN(/C=C/C=O)C(C)CC1OC(=O)c1ccccc1 (stereo not given) | > 43.1 |
| O=C(NCc1ccccc1F)C1CCCN1C(=O)Nc1ccccc1 (stereo not given) | > 51.2 |
| Cn1c(=O)c2c(nc(Oc3cccc(O)c3)n2C)n(C)c1=O | > 45.3 |
| Cc1ccc2c(CN3CCC(C(N)=O)CC3)cc(=O)oc2c1C | 46.2 (≈ 147 µM) |
| O=C(CNC(=O)c1ccccc1)Oc1cccc(Cl)c1 | > 43.5 |
| Cc1ccc(C(=O)NCCCN2CCOCC2)c(Cl)c1 | > 44.5 |
| CC(NC(=O)/C(C#N)=C/c1ccc(C(=O)O)cc1)c1ccccc1 (stereo not given) | > 48.1 |
| COc1ccc2nc(SCC(=O)NC3CC3)c(C#N)cc2c1 | 0.8 (≈ 2.55 µM) |
| Cc1cccc(CS(=O)(=O)c2ncc(CO)n2C)c1 | > 42.1 |
| COc1cccc(C(=O)NCc2ccco2)c1OC | > 39.2 |
| O=C(COC(=O)CCC(=O)c1cccs1)NCCc1ccccc1 | > 51.8 |
| Cc1cccc(N2C(=NC(=O)c3ccccc3)SC3CS(=O)(=O)CC32)c1 (stereo not given) | < 0.4 |
| CSc1ncccc1C(=O)OCC(=O)NC(C)C | > 40.2 |

| Structure (SMILES) | solubility kinetic [µg/mL] |
| --- | --- |
| Cc1ccccc1OCC(=O)Nc1ccc2oc(=O)ccc2c1 | 1.1 (≈ 3.56 µM) |
| NC(=O)c1ccccc1NC(=O)CSC1=NCCS1 | > 44.3 |
| O=C(CCN1C(=O)c2ccncc2C1=O)Nc1cc(F)ccc1F | 41.7 (≈ 126 µM) |
| Cc1cc(O)c(CN(C)C)c2c1C(=O)/C(=C/c1ccco1)O2 | > 44.9 |
| CCOc1ccccc1NC(=O)C1C2CCC(O2)C1C(=O)O (stereo not given) | > 45.8 |
| O=[N+]([O-])c1ccc2nonc2c1Nc1cccc(F)c1 | 1 (≈ 3.65 µM) |
| CC(C)(CN)CC(=O)O.Cl | 23.2 |
| Cn1c(NC(=O)c2ccc(F)cc2)c(-c2ccccn2)c(=O)c2ccccc21 | 6.2 (≈ 16.6 µM) |
| C/C(=N\OCC(=O)Nc1ccccc1C(=O)O)c1cccs1 | > 47.8 |
| Cc1nn(CC(=O)NCCCN2CCCC2=O)c(C)c1[N+](=O)[O-] | > 48.5 |
| COc1cccc(NC(=O)C(c2ccccc2)N2CCCC2)c1 (stereo not given) | > 46.6 |
| CC(=O)c1ccc(N2CCN(C(=O)c3cccs3)CC2)c(F)c1 | > 49.9 |
| CC(C(=O)NCC1CCCCC1)N(C)Cc1cccc(Cl)c1 (stereo not given) | 22.8 (≈ 70.6 µM) |
| CCOc1ccc(S(=O)(=O)/N=C(/c2ccccc2)N(C)C)cc1 | > 49.9 |
| CC(=O)N(C)c1ccc(NC(=O)C(c2ccccc2)c2ccccc2)cc1 | 40.2 (≈ 112 µM) |
| C=CCCC(=O)N1CCCC(Cc2cccc(Cl)c2)(C(=O)OCC)C1 (stereo not given) | > 54.6 |
| CCOC(=O)/C(C#N)=C\C1=C(N2CCOCC2)CC(C)(C)OC1 | > 48.1 |
| C=CCn1c(O)c(C=Nc2ccc(CN3CCCCC3)cc2)c(=O)[nH]c1=S | 51.8 (≈ 135 µM) |
| CSc1ncc(C(=O)Nc2ccc(Cl)cc2)c(C)n1 | 12.7 (≈ 43.2 µM) |
| Cc1cccc(NC(=O)CCc2ccccc2)c1C | 11.8 (≈ 46.6 µM) |
| CCOc1ccccc1NC(=O)C(C)SCc1ccccc1 (stereo not given) | 1.4 (≈ 4.44 µM) |
| COc1ccc(NC(=O)c2cc(C)no2)cc1 | > 34.8 |
| Nc1nc2ccccc2[nH]1 | > 20 |
| O=C(CN1CCOCC1)Nc1nc(-c2ccccc2)cs1 | 42.2 (≈ 139 µM) |

| Structure (SMILES) | solubility kinetic [µg/mL] |
| --- | --- |
| CCCOc1ccc(CN2CCOCC2)cc1OC.Cl | > 45.3 |
| COc1ccc([N+](=O)[O-])cc1NC(=O)CCSCCc1ccccn1 | > 54.2 |
| O=C(c1ccc([N+](=O)[O-])cc1)N1CCN(c2cccc3[nH]ccc23)CC1 | 50.7 (≈ 145 µM) |
| O=C(O)c1cc(-c2cccs2)nc2ccc(Br)cc12 | > 50.1 |
| Cc1c(O)nc2sc3ccccc3n2c1=O | 31.3 (≈ 135 µM) |
| CCN(CC)C(=O)c1ccc(NC(=O)c2ccc3c(c2)NC(=O)CS3)cc1 | 6.2 (≈ 16.2 µM) |
| Cc1ccc(CNC(=O)C2CCCN(c3cnccn3)C2)cc1 (stereo not given) | > 46.6 |
| Cc1ccc2[nH]c(C(=O)N3CCOCC3)cc2c1 | > 36.6 |
| O=C(NC1CCCCC1)C1CCN(c2ncccn2)CC1 | > 43.3 |
| CCCCn1c(=O)cc(C)n(-c2ccccc2)c1=O | 22.8 (≈ 88.3 µM) |
| C/C(=N\OCc1cccc(C(=O)O)c1)c1ccc(Cl)cc1 | > 45.6 |
| COCC(=O)Nc1nc(-c2ccc(-c3ccccc3)cc2)cs1 | 4.4 (≈ 13.6 µM) |
| CN1CCN(CCOc2ccc(-c3ccccc3)cc2)CC1.Cl | > 49.9 |
| Cc1cc(C)nc(N2CCCC(C(=O)NC3CC3)C2)n1 (stereo not given) | > 41.2 |
| O=C(CCc1nc(-c2ccccc2Cl)no1)NC1CCCC1 | 23 (≈ 71.9 µM) |
| Cc1nc2ccc(C(=O)Nc3ccc(N(C)C)cc3)cc2s1 | 4.1 (≈ 13.2 µM) |
| CC(=O)O.CN1CCCC(CN2c3ccccc3Sc3ccccc32)C1 (stereo not given) | > 55.6 |
| O=C(c1ccccc1)C1CCN(C(=O)c2c(F)cccc2F)CC1 | > 49.4 |
| O=S(=O)(Nc1ccc(-c2cnco2)cc1)c1ccccc1 | 43.6 (≈ 145 µM) |
| Cc1ccc2cc(/C=N/NC(=O)CN3CCCCC3)c(Cl)nc2c1 | > 51.7 |
| Cc1ccccc1CNCc1ccc2c(c1)OCO2.O=C(O)C(=O)O | > 51.8 |
| Cc1noc(C)c1C(=O)OC(C)C(=O)N1CCc2ccccc21 (stereo not given) | 6 (≈ 19.1 µM) |
| COc1cccc(CNC(=O)CCc2ccc(OC)c(OC)c2)c1 | > 49.4 |
| CCOc1ncccc1C(=O)Nc1ccc2c(c1)OCCCO2 | > 47.2 |

| Structure (SMILES) | solubility kinetic [µg/mL] |
| --- | --- |
| Cc1cccc(NC(=O)C2COc3ccccc3O2)c1 (stereo not given) | 7.8 (≈ 29 µM) |
| CCOc1ccc(S(=O)(=O)N2CCCCC2)cc1NC(=O)c1cccnc1OCC | 1.2 (≈ 2.77 µM) |
| CC(=O)c1cnc(-c2ccccn2)s1 | 28.3 (≈ 139 µM) |
| Cc1[nH]n(-c2ccccc2)c(=O)c1C=NCC1CCCO1 (stereo not given) | > 42.8 |
| CCOc1ccccc1N1C(=O)CC(Sc2nccc(C)n2)C1=O (stereo not given) | > 51.5 |
| COc1ccc(NC(=S)NC(=O)Cc2ccccc2)cc1 | 19.2 (≈ 63.9 µM) |
| CCCCn1nc(CC(=O)NCCN(CC)CC)c2ccccc2c1=O | > 53.8 |
| COc1cc(OC)nc(/N=C/N(C)C)n1 | > 31.5 |
| COc1ccc(C(=O)COC(=O)[C@@H](NS(=O)(=O)c2ccccc2)C(C)C)cc1 | 7.8 (≈ 19.2 µM) |
| Cc1nc2ccc(Nc3ccncc3)cc2s1 | 34.2 (≈ 142 µM) |
| O=S(=O)(Nc1ccc(Br)cc1)c1cccc2nonc12 | > 53.1 |
| Cl.OC(CNC1CCCC1)COc1ccc(F)cc1 (stereo not given) | 36.6 |
| CC(C)Oc1cccc(C(=O)C2CCCN(C(=O)c3ccoc3)C2)c1 (stereo not given) | 32.3 (≈ 94.6 µM) |
| COc1ccccc1CNc1ccc(Br)cn1 | 11.6 (≈ 39.6 µM) |
| C=CCNC(=S)N1CCC(C(N)=O)CC1 | > 34.1 |
| O=C(O)c1ccc[n+](Cc2ccc([N+](=O)[O-])cc2)c1.[Br-] | > 50.9 |
| COc1cccc(OCC(=O)NC2CCS(=O)(=O)C2)c1 (stereo not given) | > 44.9 |
| C=CCNc1nc(-c2ccc3c(c2)OCCO3)cs1 | 16.3 (≈ 59.4 µM) |
| Cc1cc(Cl)ccc1NC(=S)NC1CCCC1 | 18.1 (≈ 67.3 µM) |
| O=C(Nc1ccc2c(c1)Cc1ccccc1-2)c1ccccc1F | < 0.6 |
| Cc1cc(/C=C2\SC(=S)N(C)C2=O)c(C)n1-c1cccc(O)c1 | 0.4 (≈ 1.16 µM) |
| CCc1nc(-c2ccccc2)c2ccccn12.O=C(O)C(=O)O | 38.1 |
| COc1cc(NC(=O)CSc2nncn2C)cc(OC)c1OC | > 50.8 |
| O=Cc1c(Nc2ccccc2Cl)nc2ccccn2c1=O | < 0.2 |

| Structure (SMILES) | solubility kinetic [µg/mL] |
| --- | --- |
| CN(CC(=O)Nc1ccc(N2CCOCC2)cc1)C(=O)c1ccc(CS(C)(=O)=O)cc1 | > 66.8 |
| Cc1cc(C)cc(NC(=O)C(=S)NCc2ccccc2)c1 | < 0.3 |
| CCCN1C(=O)C(O)(c2c(C)[nH]c3ccccc23)c2ccccc21 (stereo not given) | 26.3 (≈ 82.1 µM) |
| CCN(CC)C(=S)Oc1ccc(Cl)cc1Cl | 0.9 (≈ 3.24 µM) |
| Cc1cccc(C)c1OCCN1CCOCC1.O=C(O)C(=O)O | 42.1 |
| CC(=O)c1c(COC(=O)c2ccc(C)cc2)nc2ccccc2[n+]1[O-] | 2.7 (≈ 8.03 µM) |
| Cc1ccc(C)c(SCC(=O)Nc2cccnc2Cl)c1 | 2.9 (≈ 9.45 µM) |
| O=C(CN1CCN(c2ccccc2)CC1)Nc1ccc(F)cc1 | > 47 |
| Cc1ccc(S(=O)(=O)/N=C(/Nc2cccc(O)c2)c2ccccc2)cc1 | > 55 |
| COc1cc(N)c(Cl)cc1C(=O)OCC(=O)c1cccs1 | 4.2 (≈ 12.9 µM) |
| O=C(CNS(=O)(=O)c1ccc(F)cc1)N1CCOCC1 | > 45.3 |
| Cc1onc(-c2ccccc2)c1NC(=O)N(CCC#N)Cc1ccccc1 | 45.4 (≈ 126 µM) |
| O=C(O)c1c2c(nc3ccccc13)/C(=C/c1cccc([N+](=O)[O-])c1)CCC2 | > 54.1 |
| O=[N+]([O-])c1[nH]cnc1/C=C/c1ccccc1 | 1.8 (≈ 8.36 µM) |
| O=C1CN(C(=O)COC(=O)CCC(=O)c2ccc(Cl)cc2)c2ccccc2N1 | 57.2 (≈ 143 µM) |
| CCOc1ccccc1/C=C\c1nc(O)c([N+](=O)[O-])c(=O)[nH]1 | > 45.5 |
| COc1cc(C(=O)Nc2cc(C)ccc2C)ccc1OCc1c(C)noc1C | 7.1 (≈ 18.7 µM) |
| O=C(Nc1sc2c(c1C(=O)O)CCC2)c1ccccc1F | > 45.8 |
| C/C(=N\OCC(=O)Nn1c(C)nc2ccccc2c1=O)c1cccs1 | > 53.5 |
| C=CCNC(=S)N1CCc2c([nH]c3ccccc23)C1C (stereo not given) | 27.7 (≈ 97.1 µM) |
| CCc1sc(C(=O)NCc2ccccc2)cc1C | 28.7 (≈ 111 µM) |
| CCOC(=O)c1cc(=O)[nH]c2ccccc12 | 30.6 (≈ 141 µM) |
| CC(CN1C(C)CCCC1C)OC(=O)c1ccccc1Cl (stereo not given) | > 46.5 |
| CN1C/C(=C/c2cccs2)C(=O)/C(=C\c2cccs2)C1 | 24.6 (≈ 81.6 µM) |
